Experimental findings from paper PMC5325331, “A steroid like phytochemical Antcin M is an anti-aging reagent that eliminates hyperglycemia-accelerated premature senescence in dermal fibroblasts by direct activation of Nrf2 and SIRT-1” (Oncotarget, 2016) are described below.

The subject of this assay is HNDFs. In words: Cytotoxicity of antcins against HNDFs (MTT assay). Type of assay: cell-based, human. Conditions: Homo sapiens, 72 h, read-out: IC50 (50% inhibitory concentration) against HNDFs. How it is done:
Figure 2 Effects of antcins on HG-induced senescence in HNDFs A. Type of antcins subjected to screen for potential anti-aging agents for skin aging. Names and chemical structures of the antcins are shown in the left and centrer column, respectively. The cytotoxic effects of antcins against HNDFs. Briefly, HNDFs were incubated with increasing concentrations (1, 5, 10 and 20 μM) of antcins including antcin A, antcin B, antcin C, antcin H, anticn K and antcin M for 72 h and the cell viability was determined by MTT assay. The 50% inhibitory concentrations (IC50) of each compound against HNDFs are shown in right column. B. Cells were incubated with antcin A (10 μM), antcin H (10 μM) and antcin M (10 μM) in the presence of HG (30 mM) for 72 h. Cellular senescence was determined by SA-β-gal activity. […] C. HNDFs were incubated with antcin A (10 μM), antcin H (10 μM) and antcin M (10 μM) in the presence of HG (30 mM) for 72 h. Senescence-associated marker proteins such as p16^INK4A, p21^CIP1 and SMP30 were determined by western blot analysis. D. To determine the effect of antcins on cell proliferation efficacy, HNDFs 5 × 10^4 cells/well in 6-well plates were incubated with antcins in the presence of HG (30 mM) for 72 h. Number of viable cells were quantified by the tryphan blue exclusion method. Results are expressed as mean ± S.E.M of three indipendent expriments. Statistical significance was et at ^ФP < 0.05 compared to NG vs HG and *P < 0.05 compared to HG vs. samples.
Human normal dermal fibroblasts (HNDFs, CCD966SK) and human umbilical vein endothelial cells (HUVECs) were obtained from the Bioresource Collection and Research Center (BCRC), Hsinchu, Taiwan. HNDFs were grown in MEM containing 10% FBS, 2 mM L-glutamine, 100 U/mL penicillin and streptomycin at 37°C in a fully humidified atmosphere of 5% CO2. Likewise, HUVECs were grown in M-199 medium supplemented with ECGS, heparin, 10% FBS and 100 U/mL penicillin and streptomycin at 37°C in a fully humidified atmosphere of 5% CO2. High-glucose treatment was performed by treating cells with 15 or 30 mM D-glucose (HG) for 24-72 h.
Cell viability was assessed by MTT colorimetric assay. Briefly, HNDFs (2 × 10^4 cells/well) or HUVECs (5 × 10^4 cells/well) were seeded in a 24-well culture plate. After treatment with HG (15 and 30 mM) in the presence or absence of samples for 24-72 h, culture media was withdrawn and incubated with MTT (1 mg/mL) in fresh medium for 2 h. The MTT formazan crystals were dissolved in 400 μL of DMSO and the samples were measured at 570 nm […] using an ELISA microplate reader (Bio-Tek Instruments, Winooski, VT). The percentage of cell viability (%) was calculated as (A570 of treated cells/A570 of untreated cells) × 100.
(In general: Tetrazolium assays rely on reduction of a dye to a coloured formazan, in cell work by metabolically active cells.)

On to `C=C(CCC(C)C1CCC2C3=C(C(=O)C(O)C21C)C1(C)CCC(O)C(C)C1CC3)C(C)C(=O)O` (stereo not shown) [ANM, antcin M], for which the IC50 is more than 50 µM.
